Patent publication US4368199A, “Novel derivatives of 3,4,5-trimethoxy cinnamoyl piperazine, their salts, the process for preparing the same and their application in therapeutics” (Delalande S.A., priority 1980, dated 1983)
Counter-ions that a name gives are not always drawn. Like-named read-outs stand apart in the source and are kept apart here.

Tests used:
[1] = Acute toxicity in the mouse (MILLER and TAINTER method); settings: in vivo; for LD50: read-out: LD 50 (mouse)
Protocol: The acute toxicity was assessed in accordance with the MILLER and TAINTER method (Proc. Sci. Exp. Biol. Med. 1944, 57, 261)

dogs = assay: Haemodynamic tests on dogs anaesthetized with sodic pentobarbital (arterial pressure, cardiac frequency, coronary flow, cardiac contractile force); assay type: in vivo; settings: dog; for change in vivo at 0.625 mg/kg / change in vivo at 2.5 mg/kg: Canis lupus familiaris, iv
Protocol: Tests were carried out on dogs anaesthetized with sodic pentobarbital (30 mg/kg/i.v.) and the compounds of formula (I) were administered intravenously. The activity on the cardiac contractile force was measured with a BRODIE and WALTON stress gauge fixed to the left ventricle.
The arterial pressure was measured at the femoral artery with a SANBORN pressure sensor.
The cardiac frequency was automatically counted by means of a cardiotachymeter from the pulse pressure wave.
The coronary flow was measured by means of an electromagnetic probe of the STATHAM or BIOTRONEX type at the coronary artery.

[2] = 0.625 mg/kg/i.v., read-out: Increase of the cardiac contractile force
[3] = 0.625 mg/kg/i.v., read-out: Increase of the coronary flow
[4] = 0.625 mg/kg/i.v., read-out: Variation of the average arterial pressure
[5] = 0.625 mg/kg/i.v., read-out: Variation of the cardiac frequency
[6] = 2.5 mg/kg/i.v., read-out: Increase of the coronary flow
[7] = 2.5 mg/kg/i.v., read-out: Variation of the average arterial pressure
[8] = 2.5 mg/kg/i.v., read-out: Variation of the cardiac frequency
[9] = 2.5 mg/kg/i.v., read-out: Increase of the cardiac contractile force
[10] = po, at 1000 mg/kg, read-out: LD 50 column: percentage in parentheses (p.o.)

Row | Compound | LD50 ([1]; iv) [mg/kg] | change in vivo at 0.625 mg/kg (dogs; [2]) [%] | change in vivo at 0.625 mg/kg (dogs; [3]) [%] | change in vivo at 0.625 mg/kg (dogs; [4]) [%] | change in vivo at 0.625 mg/kg (dogs; [5]) [%] | change in vivo at 2.5 mg/kg (dogs; [6]) [%] | change in vivo at 2.5 mg/kg (dogs; [7]) [%] | change in vivo at 2.5 mg/kg (dogs; [8]) [%] | Increase of the coronary flow: duration (dogs; 0.625 mg/kg/i.v.) [mn] | Variation of the cardiac frequency: duration (dogs; 0.625 mg/kg/i.v.) [mn] | Increase of the cardiac contractile force (dogs; 2.5 mg/kg/i.v.) | Increase of the cardiac contractile force: duration (dogs; 2.5 mg/kg/i.v.) [mn] | Increase of the coronary flow: duration (dogs; 2.5 mg/kg/i.v.) [mn] | change in vivo at 2.5 mg/kg (dogs; [9]) [%] | Increase of the cardiac contractile force: duration (dogs; 0.625 mg/kg/i.v.) [mn] | Variation of the average arterial pressure: duration (dogs; 2.5 mg/kg/i.v.) [mn] | mortality [1, 10] [%] | Variation of the average arterial pressure: duration (dogs; 0.625 mg/kg/i.v.) [mn] | Variation of the cardiac frequency: duration (dogs; 2.5 mg/kg/i.v.) [mn] | mortality ([1]; iv, at 200 mg/kg, read-out: LD 50 column: percentage in parentheses) [%]
1 | COc1ccc(CN2CCN(C(=O)C=Cc3cc(OC)c(OC)c(OC)c3)CC2)cc1OC [Compound 2] | 105 | 71 | 93 | -12 | 6 | 76 to 398 | -25 | 8 | < 20 | < 5 | +58 to | > 308 | > 30 | – | – | – | – | – | – | –
2 | COc1cc(C=CC(=O)N2CCN(CCc3cccc(O)c3)CC2)cc(OC)c1OC [Compound 3] | > 200 | 47 | 26 | -9 | 0 | 62 | -36 | 7 | 5 | – | – | – | – | 62 | 30 | > 30 | – | – | – | –
3 | COc1cc(C=CC(=O)N2CCN(CC(=O)c3ccc(OC)c(OC)c3OC)CC2)cc(OC)c1OC [Compound 7] | – | 69 | 277 | -22 | -2 to 15 | 416 | -35 | -8 to 9 | < 5 | – | – | < 10 | < 20 | 51 | – | – | 0 | – | – | –
4 | COc1cc(C=CC(=O)N2CCN(CC(=O)c3ccc(OC)c4c3OCCO4)CC2)cc(OC)c1OC [Compound 10] | 180 | 9 | 39 | -7 | 2 | 46 | -16 | 12 | – | < 5 | – | 10 | – | 53 | < 10 | > 30 | – | < 5 | > 30 | –
5 | COc1cc(C=CC(=O)N2CCN(Cc3ccc(NC(C)=O)cc3)CC2)cc(OC)c1OC [Compound 41] | > 200 | – | – | – | – | – | -36 | -16 | – | – | – | – | – | 35 | – | – | – | – | – | –
6 | CNC(=O)Nc1ccc(CCN2CCN(C(=O)C=Cc3cc(OC)c(OC)c(OC)c3)CC2)cc1 [Compound 54] | > 200 | – | – | – | – | 181 | -9 | 4 | – | – | – | – | – | 48 | – | – | – | – | – | –
7 | COc1cc(C=CC(=O)N2CCN(CC(=O)c3ccc4ccccc4c3)CC2)cc(OC)c1OC [Compound 62] | 45 | – | – | – | – | – | -14 | 4 | – | – | – | > 30 | – | 43 | – | 10 | – | – | 5 | –
8 | COc1ccc(OC)c(C(=O)CN2CCN(C(=O)C=Cc3cc(OC)c(OC)c(OC)c3)CC2)c1 [Compound 70] | 168 | – | – | – | – | 27 | -21 | 5 | – | – | – | – | – | 50 | – | – | – | – | – | –
9 | COc1ccc(C(O)CN2CCN(C(=O)C=Cc3cc(OC)c(OC)c(OC)c3)CC2)c(OC)c1 (stereo not shown) [Compound 89] | > 100 | – | – | – | – | – | -38 | -10 | – | – | – | – | – | 51 | – | > 30 | – | – | – | –
10 | COc1ccc(OC)c(C(O)CN2CCN(C(=O)C=Cc3cc(OC)c(OC)c(OC)c3)CC2)c1 (stereo not shown) [Compound 90] | – | – | – | – | – | 15 | -11 | 0 | – | – | – | – | – | 42 | – | – | 80 | – | – | –
11 | CNC(=O)Nc1ccc(C(O)CN2CCN(C(=O)C=Cc3cc(OC)c(OC)c(OC)c3)CC2)cc1 (stereo not shown) [Compound 95] | > 200 | – | – | – | – | 27 | -20 | 8 | – | – | – | 10 | – | 21 | – | – | – | – | – | –
12 | COc1ccc(CC(O)CN2CCN(C(=O)C=Cc3cc(OC)c(OC)c(OC)c3)CC2)cc1OC (stereo not shown) [Compound 102, 3-[4-(3,4,5-trimethoxycinnamoyl) 1-piperazinyl]1-(3,4-dimethoxy)phenyl 2-propanol hydrochloride hydrate] | > 200 | – | – | – | – | 34 | -26 | -4 | – | – | – | 10 | – | 13 | – | > 30 | – | – | – | –
13 | COc1cc(C=CC(=O)N2CCN(CCc3c[nH]c4ccccc34)CC2)cc(OC)c1OC [Compound 105] | > 200 | – | – | – | – | 55 | -34 | 0 | – | – | – | – | – | 17 | – | > 30 | – | – | – | –
14 | COc1cc(C=CC(=O)N2CCN(C3CCc4cc(O)c(O)cc4C3)CC2)cc(OC)c1OC (stereo not shown) [Compound 108, 2-[4-(3,4,5-trimethoxycinnamoyl) 1-piperazinyl] 1,2,3,4-tetrahydro 6,7-dihydroxy naphthyl hydrate] | 200 | – | – | – | – | 29 | -20 | 3 | – | – | – | – | – | 44 | – | > 30 | – | – | – | 20
